Reference: article PMC7516806, “Hybrid Antimicrobial Peptide Targeting Staphylococcus aureus and Displaying Anti-infective Activity in a Murine Model” (Frontiers in Microbiology, 2020)
Positions of bridges follow the written chain, without caps; N, C: chain ends. Residues, ends and D or L forms follow the SMILES beside them.

How the values were obtained:
[1] = system: S. aureus 29213; test: Mouse model of subcutaneous infection; assay type: in vivo, ICR mice; settings: 80× MIC
Procedure: (§1) To assess the antimicrobial activity of the peptide in vivo, a mouse model of subcutaneous infection was used ([Huang et al., 2011a]; [Omolo et al., 2017]). Female Institute for Cancer Research (ICR) mice (SPF, 20–25 g) were purchased from WeiTonglihua Co., Ltd. (Beijing, China), with eight animals per group. The mice were shaved on their backs and disinfected. S. aureus 29213 (100 μL) at a concentration of 1 × 10^8 CFU/mL was injected into the superficial skin of the mice. The mice were divided into four groups (n = 4), as follows: S. aureus + saline, S. aureus + S2 (80× MIC, 100 μL), S. aureus + vancomycin (Van) (80× MIC, 100 μL), and saline. S2, vancomycin, and saline were injected at the same site 1 h after infection. The mice were monitored over 24 h in an environmentally controlled room at 25 ± 1°C and 55 ± 5% relative humidity with a 12 h light/dark cycle.
(§2) To image the infected skin tissues, the mice were euthanized 24 h after the injection of S. aureus. Samples were fixed in 4% buffered paraformaldehyde and subjected to hematoxylin/eosin (HE) staining. The antimicrobial activity in vivo was determined by colony counting of infected skin samples. Skin homogenates were serially diluted in saline and incubated at 37°C for 24 h.

[2] = system: S. aureus 29213; test: Histology (HE) of infected skin tissue; assay type: in vivo, ICR mice; settings: 24 h after injection of S. aureus
Procedure: as §1, §2

[3] = system: IL-6; test: Cytokine ELISA in infected skin; assay type: in vivo, ICR mice; settings: 24 h after treatment, P < 0.05
Procedure: as §1
(§3) The mice were treated as described above. Skin samples were treated according to the manufacturer’s instructions. The levels of tumor necrosis factor-alpha (TNF-α), interleukin-6 (IL-6), and granulocyte-macrophage colony-stimulating factor (GM-CSF) in infected skin were measured using enzyme-linked immunosorbent assay (ELISA) kits following the manufacturer’s instructions.

[4] = system: TNF-α; test: Cytokine ELISA in infected skin; assay type: in vivo, ICR mice; settings: 24 h after treatment, P < 0.05
Procedure: as §1, §3

[5] = system: S. aureus 29213; test: MIC in the presence of physiological salts; assay type: cell-based, Staphylococcus aureus; settings: three independent repeats, unit not given in Table 4
Procedure: (§4) The experiment was repeated at least three times independently.
The MIC of peptides was determined in the presence of salts at physiological concentrations (150 mM NaCl, 4.5 mM KCl, 6 μM NH4Cl, 8 μM ZnCl2, 1 mM MgCl2, 2 mM CaCl2, and 4 μM FeCl3) as described previously ([Dong et al., 2014]). All experiments were performed three times independently.

[6] = system: E. coli K88; settings: MHB, 2–7 × 10^5 CFU/ml, 37°C, 24 h, no turbidity, at least three independent repeats
Source text: (§5) The bacterial strains Escherichia coli (E. coli) ATCC 25922, E. coli K88, E. coli K99, Pseudomonas aeruginosa (P. aeruginosa) ATCC 27853, Escherichia coli (E. coli) UB1005, Salmonella typhimurium 14028, Salmonella pullorum (S. pullorum) C7913, S. typhimurium C7731, S. aureus ATCC 29213, MRSA ATCC 43300, and S. aureus ATCC 25923 were obtained from the College of Veterinary Medicine, Northeast Agricultural University, China. Lactobacillus plantarum (L. plantarum) 8014, Lactobacillus rhamnosus (L. rhamnosus) 7469, L. rhamnosus 1.0911, L. rhamnosus 1.0936, and L. rhamnosus 1.0385 were obtained from the Key Laboratory of Food College, Northeast Agricultural University, China.
(§6) As in a previous study, the antimicrobial activities of the AMPs were investigated using a modified standard microtiter dilution method ([Dong et al., 2014]). The peptides were serially diluted with a solution containing 0.01% acetic acid and 0.2% bovine serum albumin (BSA, Sigma) in 96-well plates. The bacteria grew to the mid-log phase and then were dissolved in MHB at concentration of 2–7 × 10^5 CFU/ml. The peptides and bacterial solution were mixed in equal volume in a 37°C incubator for 24 h. […] Mueller-Hinton broth with microorganisms was used as the positive control, and the pure broth was used as the negative control. The experiment was repeated at least three times independently.

[7] = system: E. coli K99; settings: MHB, 2–7 × 10^5 CFU/ml, 37°C, 24 h, no turbidity, at least three independent repeats
Source text: as §5, §6

[8] = system: S. aureus 25923; test: MIC, modified microtiter dilution; assay type: cell-based, Staphylococcus aureus; settings: MHB, 2–7 × 10^5 CFU/ml, 37°C, 24 h, no turbidity, at least three independent repeats
Source text: as §4

[9] = system: S. aureus 29213; test: MIC, modified microtiter dilution; assay type: cell-based, Staphylococcus aureus; settings: MHB, 2–7 × 10^5 CFU/ml, 37°C, 24 h, no turbidity, at least three independent repeats
Source text: as §4

[10] = system: MRSA 43300; assay type: cell-based, Staphylococcus aureus; settings: MHB, 2–7 × 10^5 CFU/ml, 37°C, 24 h, no turbidity, at least three independent repeats
Source text: as §4

[11] = system: RAW 264.7 cells; test: Cytotoxicity, MTT dye reduction assay; assay type: cell-based, murine; settings: highest concentration of 128 μM, 4 h, three independent repeats
Procedure: The cytotoxicity of peptides was determined by healthy human erythrocytes and the murine macrophage cell line RAW 264.7 via a hemolysis assay and MTT dye reduction assay, respectively ([Wang et al., 2018]). In the hemolysis assay, fresh hRBCs from healthy people were centrifuged for 5 min at 1,000 × g and then washed three times with PBS (pH = 7.2). The 100 μL erythrocyte suspension and peptides were incubated for 1.5 h in an incubator at 37°C. The 96-well plates were centrifuged at 1,000 × g for 5 min, and the supernatants were carefully aspirated. The absorbance at 570 nm indicated the leakage of hemoglobin. The hRBCs in the PBS sample was used as the negative control, and 0.1% Triton X-100 addition served as the positive control. In the MTT dye reduction assay, 1.0–2.0 × 10^5 cells were plated in 96-well plates and then treated with various concentrations of peptides for 4 h at 37°C in a 5% CO2 incubator. Subsequently, 50 μL of MTT was added to the plated cells at a final concentration of 0.5 mg/mL and incubated for 4 h. Then, the cells were centrifuged at 1000 × g for 5 min, and the supernatants were discarded. Formazan crystals were dissolved in 150 μL of DMSO, and the OD570 nm was measured using a microplate reader (TECAN GENios F129004; TECAN, Austria). The experiment was repeated three times independently.

[12] = system: L. rhamnosus 1.0936; test: MIC, modified microtiter dilution; assay type: cell-based, Lactobacillus rhamnosus; settings: 2–7 × 10^5 CFU/ml, 37°C, 24 h, no turbidity, at least three independent repeats
Source text: as §4

[13] = system: L. rhamnosus 7469; test: MIC, modified microtiter dilution; assay type: cell-based, Lactobacillus rhamnosus; settings: 2–7 × 10^5 CFU/ml, 37°C, 24 h, no turbidity, at least three independent repeats
Source text: as §4

[14] = system: L. rhamnosus 1.0385; test: MIC, modified microtiter dilution; assay type: cell-based, Lactobacillus rhamnosus; settings: 2–7 × 10^5 CFU/ml, 37°C, 24 h, no turbidity, at least three independent repeats
Source text: as §4

[15] = system: L. rhamnosus 1.0911; test: MIC, modified microtiter dilution; assay type: cell-based, Lactobacillus rhamnosus; settings: 2–7 × 10^5 CFU/ml, 37°C, 24 h, no turbidity, at least three independent repeats
Source text: as §4

[16] = system: E. coli 25922; test: MIC, modified microtiter dilution; assay type: cell-based, Escherichia coli; settings: MHB, 2–7 × 10^5 CFU/ml, 37°C, 24 h, lowest concentration with no turbidity, at least three independent repeats
Source text: as §4

[17] = system: E. coli UB1005; test: MIC, modified microtiter dilution; assay type: cell-based, Escherichia coli; settings: MHB, 2–7 × 10^5 CFU/ml, 37°C, 24 h, no turbidity, at least three independent repeats
Source text: as §4

[18] = system: P. aeruginosa 27853; test: MIC, modified microtiter dilution; assay type: cell-based, Pseudomonas aeruginosa; settings: MHB, 2–7 × 10^5 CFU/ml, 37°C, 24 h, no turbidity, at least three independent repeats
Source text: as §4

[19] = system: S. pullorum 7913; test: MIC, modified microtiter dilution; assay type: cell-based, Salmonella pullorum; settings: MHB, 2–7 × 10^5 CFU/ml, 37°C, 24 h, no turbidity, at least three independent repeats
Source text: as §4

[20] = system: L. plantarum 8014; test: MIC, modified microtiter dilution; assay type: cell-based, Lactobacillus plantarum; settings: 2–7 × 10^5 CFU/ml, 37°C, 24 h, no turbidity, at least three independent repeats
Source text: as §4

[21] = system: panel of bacterial species; test: MIC against a panel of bacterial species (summary statements); assay type: cell-based; settings: all tested bacteria, up to the highest concentration measured
Source text: as §4

[22] = system: S. typhimurium 14028; test: MIC, modified microtiter dilution; assay type: cell-based, Salmonella typhimurium; settings: MHB, 2–7 × 10^5 CFU/ml, 37°C, 24 h, no turbidity, at least three independent repeats
Source text: as §4

[23] = system: S. typhimurium 7731; test: MIC, modified microtiter dilution; assay type: cell-based, Salmonella typhimurium; settings: MHB, 2–7 × 10^5 CFU/ml, 37°C, 24 h, no turbidity, at least three independent repeats
Source text: as §4

## CN[C@H](CC(C)C)C(=O)N[C@H]1C(=O)N[C@@H](CC(N)=O)C(=O)N[C@H]2C(=O)N[C@H]3C(=O)N[C@H](C(=O)N[C@H](C(=O)O)c4cc(O)cc(O)c4-c4cc3ccc4O)[C@H](O)c3ccc(c(Cl)c3)Oc3cc2cc(c3O[C@@H]2O[C@H](CO)[C@@H](O)[C@H](O)[C@H]2O[C@H]2C[C@](C)(N)[C@H](O)[C@H](C)O2)Oc2ccc(cc2Cl)[C@H]1O [vancomycin, reference compound]
[1]; 100 μL injected at the infected site 1 h after infection, skin homogenate colony count after 24 h, P < 0.01
  decrease in bacterial colonies at infection site versus control group: 10 fold
[1]; 100 μL, 1 h after infection
  ulceration (lesion) size, length × width: significantly reduced ulceration sizes
[2]
  histomorphological changes of skin tissue (HE): good recovery
[3]
  IL-6 generation in infected skin: suppressed
[4]
  TNF-α generation in infected skin: suppressed

## C[C@H](NC(=O)[C@H](C)NC(=O)[C@H](Cc1c[nH]c2ccccc12)NC(=O)[C@H](Cc1c[nH]c2ccccc12)NC(=O)[C@H](Cc1c[nH]c2ccccc12)NC(=O)[C@H](CCCNC(=N)N)NC(=O)[C@@H]1CSSC[C@H](N)C(=O)N[C@@H](C)C(=O)N[C@@H](CO)C(=O)N[C@@H](Cc2ccc(O)cc2)C(=O)N[C@@H](Cc2ccccc2)C(=O)N1)C(N)=O [Peptide S3] (H-CASYFCRWWWAA-NH2; disulfide 1-6; N-terminus assumed)
[5]; 4 μM FeCl3
  MIC against S. aureus 29213, FeCl3: >64 µM
[5]; 6 μM NH4Cl
  MIC against S. aureus 29213, NH4Cl: >64 µM
[5]; 8 μM ZnCl2
  MIC against S. aureus 29213, ZnCl2: >64 µM
[5]; 1 mM MgCl2
  MIC against S. aureus 29213, MgCl2: >64 µM
[5]; 2 mM CaCl2
  MIC against S. aureus 29213, CaCl2: >64 µM
[5]; 4.5 mM KCl
  MIC against S. aureus 29213, KCl: >64 µM
[5]; 150 mM NaCl
  MIC against S. aureus 29213, NaCl: >64 µM
[6]
  MIC E. coli K88: >64 µM
[7]
  MIC E. coli K99: >64 µM
[8]
  MIC S. aureus 25923: >64 µM
[9]
  MIC S. aureus 29213: >64 µM
[10]
  MIC MRSA 43300: >64 µM
[11]
  RAW 264.7 cell survival rate: 84%
[12]
  MIC L. rhamnosus 1.0936: >64 µM
[13]
  MIC L. rhamnosus 7469: >64 µM
[14]
  MIC L. rhamnosus 1.0385: >64 µM
[15]
  MIC L. rhamnosus 1.0911: >64 µM
[16]
  MIC E. coli 25922: >64 µM
[17]
  MIC E. coli UB1005: >64 µM
[18]
  MIC P. aeruginosa 27853: >64 µM
[19]
  MIC S. pullorum 7913: >64 µM
[20]
  MIC L. plantarum 8014: >64 µM
[21]
  antimicrobial activity against the tested microorganisms: failed to show antimicrobial activity
[22]
  MIC S. typhimurium 14028: >64 µM
[23]
  MIC S. typhimurium 7731: >64 µM
